# Results published in patent US20230241071A1, “COMBINATION TREATMENT OF LIVER DISORDERS” (Terns Pharmaceuticals, Inc., priority 2021, published 2023).
# Legend:
# [1] = Pharmacokinetic evaluation in SD rats; format: in vivo, rat; details: 2.0 mg/kg intragastric
# Protocol: Drug Preparation: a certain amount of the drug was taken and added into a 2% Klucel LF+0.1% Tween 80 aqueous solution, to prepare a clear solution or a uniform suspension.
# Dosage: SD rats were fasted overnight and given the drug by intragastric infusion at an administrated dose of 2 mg/kg and an administrated volume of 10 mL/kg each.
# Operation: rats were dosed by intragastric infusion with the compounds. […] The heparinized sample tubes were then stored at −20° C., and the rats were allowed to eat food 2 h after the dosage.
# Determination of contents of the compounds to be tested in the plasma of rats after intragastric infusion of the drugs at different concentrations: the plasma samples were thawed at room temperature, 50 μL each was taken and added into 130 μL of an internal standard working solution (1000 ng/mL, acetonitrile, tolbutamide), and the mixture was whirled for about 1 min and then centrifugated at 4° C. and 13000 rpm for 10 min. 50 μL of the supernatant was taken and mixed with 100 μL of 50% acetonitrile water, and then introduced for LC/MS/MS analysis.
# [2] = test system: SD rats fed a high cholesterol diet; assay: Rat hypercholesterolemic model; format: in vivo; details: single IP dose 0.3 to 30 mpk, 24 h after injection
# Protocol: SD rats were fed a high cholesterol diet for 2 weeks, increasing the serum cholesterol levels ˜4-fold over that time. Single doses of Compound 2 from 0.3 to 30 mpk or a single 30 mpk dose of MGL-3196 were injected IP and serum was analyzed for total serum cholesterol and triglycerides 24 h after the injection.
# [3] = test system: SHBG, Apo B and serum lipids; assay: Single-ascending dose trial of Compound 2: serum PD markers; format: in vivo, human; design: LDL-c change from baseline / HDL-c change from baseline / TC change from baseline / Apo B change from baseline: unit not given here
# Protocol: Urine samples for Compound 2 concentration and PK sampling were collected pre-dose and at the following timepoints: 0-6 hours, 6-12 hours, 12-24 hours, and 24-48 hours. PK parameters were estimated via noncompartmental methods using Phoenix® WinNonlin® (Certara, LP, Princeton, N.J.). Concentrations of serum pharmacodynamic (PD) biomarkers apolipoprotein B (Apo B) and sex hormone binding globulin (SHBG) were measured using an immunoassay and serum lipids were determined using spectrophotometry.
# PD sampling was performed pre-dose, and 48 hours and 72 hours post-dose. Percent change from baseline for PD markers were calculated using an ANCOVA model with percent change from baseline as dependent variable, treatment group as fixed effect, and baseline as covariate. Analyses used observed data only without imputation for missing data.
# OATP1B1 = biological target: T1, OATP1B1 (Homo sapiens, UniProt Q9Y6L6); assay: In vitro transporter inhibition, OATP1B1; format: in vitro ADME
# T1 sequence (Q9Y6L6 1-691): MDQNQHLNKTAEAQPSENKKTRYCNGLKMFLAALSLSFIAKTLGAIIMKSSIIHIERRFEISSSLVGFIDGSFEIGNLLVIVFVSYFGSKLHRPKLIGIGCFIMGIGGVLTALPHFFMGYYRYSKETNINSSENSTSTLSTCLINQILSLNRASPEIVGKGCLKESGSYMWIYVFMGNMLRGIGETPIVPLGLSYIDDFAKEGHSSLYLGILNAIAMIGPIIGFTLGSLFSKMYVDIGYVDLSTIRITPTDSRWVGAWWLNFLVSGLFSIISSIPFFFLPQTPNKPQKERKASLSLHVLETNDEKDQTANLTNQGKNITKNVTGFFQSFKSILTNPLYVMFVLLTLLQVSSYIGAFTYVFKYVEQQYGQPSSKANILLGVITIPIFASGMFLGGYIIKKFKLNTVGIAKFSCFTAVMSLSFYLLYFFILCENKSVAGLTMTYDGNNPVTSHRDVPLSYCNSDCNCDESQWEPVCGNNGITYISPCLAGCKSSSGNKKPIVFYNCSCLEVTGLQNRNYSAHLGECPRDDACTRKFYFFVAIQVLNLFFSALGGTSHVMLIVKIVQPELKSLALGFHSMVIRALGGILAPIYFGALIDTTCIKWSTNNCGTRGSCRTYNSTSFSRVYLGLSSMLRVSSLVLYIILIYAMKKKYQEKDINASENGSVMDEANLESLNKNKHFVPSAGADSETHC
# OATP1B3 = biological target: T2, OATP1B3 (Homo sapiens, UniProt Q9NPD5); assay: In vitro transporter inhibition, OATP1B3; format: in vitro ADME
# T2 sequence (Q9NPD5 1-702): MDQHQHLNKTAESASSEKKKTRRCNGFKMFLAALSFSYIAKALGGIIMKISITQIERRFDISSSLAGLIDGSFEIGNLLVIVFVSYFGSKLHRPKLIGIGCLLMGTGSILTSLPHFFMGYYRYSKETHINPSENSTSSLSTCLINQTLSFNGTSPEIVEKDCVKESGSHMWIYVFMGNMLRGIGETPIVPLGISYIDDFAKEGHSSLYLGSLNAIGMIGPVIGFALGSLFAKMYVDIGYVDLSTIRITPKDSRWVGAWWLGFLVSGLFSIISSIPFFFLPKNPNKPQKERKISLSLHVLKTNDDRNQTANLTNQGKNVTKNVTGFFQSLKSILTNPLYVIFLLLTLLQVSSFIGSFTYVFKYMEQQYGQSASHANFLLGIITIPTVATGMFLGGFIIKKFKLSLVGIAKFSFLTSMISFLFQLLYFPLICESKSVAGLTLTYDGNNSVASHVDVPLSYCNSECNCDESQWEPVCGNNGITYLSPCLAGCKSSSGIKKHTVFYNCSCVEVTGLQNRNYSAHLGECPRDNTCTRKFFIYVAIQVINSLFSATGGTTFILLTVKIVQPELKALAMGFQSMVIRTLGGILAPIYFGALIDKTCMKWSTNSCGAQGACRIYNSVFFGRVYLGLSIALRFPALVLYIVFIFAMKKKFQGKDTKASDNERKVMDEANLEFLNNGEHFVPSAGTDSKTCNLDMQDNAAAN
# [4] = Day 3 after single dose 3 mg (n = 6)
# [5] = Day 3 after single dose 10 mg (n = 6)
# [6] = Day 3 after single dose 30 mg (n = 6)
# [7] = Day 3 after single dose 60 mg (n = 6)
compound,measurement,setting,value
"N#Cc1nn(-c2cc(Cl)c(Oc3n[nH]c(=O)c4ccccc34)c(Cl)c2)c(=O)[nH]c1=O [Compound 2, 2-(3,5-dichloro-4-((4-oxo-3,4-dihydrophthalazin-1-yl)oxy)phenyl)-3,5-dioxo-2,3,4,5-tetrahydro-1,2,4-triazine-6-carbonitrile]",Curve area,[1],24790 ± 3704 ng·h/mL
same,Peak blood drug concentration,[1],2007 ± 106 ng/mL
same,Time to peak,[1],4.67 ± 1.15 h
same,half-life,"[1]; male, rat, plasma, po",4.56 ± 0.42 h
same,reduction of serum triglycerides from time 0,[2],30-80%
same,reduction of total cholesterol in the serum,[2],30-70%
same,"LDL-c, total cholesterol, and Apo-B",[3]; Day 3 after single dose,Dose-dependent decreases
same,Apo B LSM % change,[3]; [4],−2.7%
same,Apo B change from baseline,[3]; [4],−1.5
same,HDL-c LSM % change,[3]; [4],2.4%
same,HDL-c change from baseline,[3]; [4],0.87
same,LDL-c LSM % change,[3]; [4],−3.1%
same,LDL-c change from baseline,[3]; [4],−3.98
same,SHBG LSM % change,[3]; [4],6.3%
same,SHBG change from baseline,[3]; [4],0.20 nmol/L
same,TC LSM % change,[3]; [4],−0.88%
same,TC change from baseline,[3]; [4],−1.85
same,Apo B LSM % change,[3]; [5],−6.0%
same,Apo B change from baseline,[3]; [5],−5.6
same,HDL-c LSM % change,[3]; [5],−1.0%
same,HDL-c change from baseline,[3]; [5],−1.1
same,LDL-c LSM % change,[3]; [5],0.70%
same,LDL-c change from baseline,[3]; [5],0.68
same,SHBG LSM % change,[3]; [5],31.3%
same,SHBG change from baseline,[3]; [5],15.8 nmol/L
same,TC LSM % change,[3]; [5],−0.84%
same,TC change from baseline,[3]; [5],−1.93
same,Apo B LSM % change,[3]; [6],−11.0%
same,Apo B change from baseline,[3]; [6],−11.5
same,HDL-c LSM % change,[3]; [6],−12.1%
same,HDL-c change from baseline,[3]; [6],−6.1
same,LDL-c LSM % change,[3]; [6],−12.5%
same,LDL-c change from baseline,[3]; [6],−15.7
same,SHBG LSM % change,[3]; [6],16.5%
same,SHBG change from baseline,[3]; [6],6.0 nmol/L
same,TC LSM % change,[3]; [6],−11.84%
same,TC change from baseline,[3]; [6],−24.14
same,Apo B LSM % change,[3]; [7],−15.75%
same,Apo B change from baseline,[3]; [7],−13.9
same,SHBG LSM % change,[3]; [7],13.8%
same,SHBG change from baseline,[3]; [7],5.05 nmol/L
same,triglyceride levels,[3]; after a single dose,No significant changes
same,SHBG relative to placebo,[3]; single doses of ≥10 mg,Significant increases
same,IC50,OATP1B1,2.01 µM
same,IC50,OATP1B3,0.71 µM
